SMILES strings stand for the structures. Several values for one entry are separate records, joined by “and”; a condition that tells them apart may be missing. Equal entries are not always repeated. A value given as a limit tells only on which side of the number the result lay.

Experimental findings from PubChem BioAssay AID743267 (Broad Institute, 2014) are described below.

The experiment has as its system human bronchial epithelial cells, CFTR corrector, plate reader. Put plainly: CFTR ΔF508 corrector activity in bronchial cells, dose response, human bronchial epithelial cells, plate reader, cherry-pick, two tests (AID 743267).
Where [1] appears, read: measured here: test 1 replicate run.
[2] abbreviates: measured here: test 2 replicate run.

On to `COC(=O)C[C@@H]1CC[C@@H]2[C@H](COc3ccc(NC(=O)c4cc(C)on4)cc3C(=O)N2C)O1`, for which, under setting [1], the AC50 (in general, the concentration giving half of the maximal activity seen) stood at 3.67 µM.
Molecule `Cc1ccc(Nc2nc(-c3sc(C)nc3C)cs2)cc1` displayed a half-maximal activity concentration (AC50) under setting [2] of 0.812 µM.
On to `COc1ccc(S(=O)(=O)Nc2ccc3c(c2)C(=O)N([C@H](C)CO)C[C@@H](C)[C@@H](CN(C)Cc2ccc(C(F)(F)F)cc2)O3)cc1`, for which the AC50 under setting [1] was above 50 µM.
As to `NS(=O)(=O)c1ccc(NNC(=O)c2ccc(Br)o2)c([N+](=O)[O-])c1`, the AC50 under setting [2] amounted to 8.91 µM.
Under setting [2], `COC(=O)c1ccccc1-c1c2ccc(=N)cc-2oc2cc(N)ccc12` returned an AC50 of 0.181 µM.
On the same count and under the same terms, the result for `O=C(/C=C/c1ccco1)NC(=S)Nc1nc(-c2ccc3ccccc3c2)cs1` reads 3.34 µM; that for `COC(=O)C1=CN(c2ccc3c(c2)OCO3)C(N)=C(C#N)C1c1cccc(F)c1` (stereo not given), 1.55 µM.
With `Cc1ccc(-c2ccc3c(c2)O[C@H](CN(C)C(=O)Nc2ccc(C(F)(F)F)cc2)[C@@H](C)CN([C@@H](C)CO)S3(=O)=O)cc1`, the AC50 under setting [1] was above 50 µM.
For the molecule `Cc1occc1C(=O)N/N=C/c1c(O)ccc2ccccc12`, the AC50 under setting [2] was found to be 1.84 µM.
The same measure, in the same setting: the result for `Cc1noc(C)c1COc1ccc(C(=O)NNC(=O)c2ccccc2)cc1` reads 6.4 µM.
Turning to `C[C@@H]1O[C@@H](O[C@@H]2C=C3CC[C@@H]4C(CC[C@]5(C)[C@@H](c6ccc(=O)oc6)CC[C@]45O)[C@@]3(C)CC2)[C@H](O)[C@H](O)[C@H]1O` (stereo not given in full), the AC50 under setting [2] amounted to 1.42 µM.
`CC1(C)Cc2c(c(-c3ccco3)nc3sc4c(NCCN5CCOCC5)ncnc4c23)CO1` gave an AC50 under setting [2] of 3.92 µM.
Same read-out and setting: in the case of `N#CC1c2ccccc2-c2ccccc2N1C(=O)c1ccccc1` (stereo not given) it was 4.85 µM; in that of `CN(C)CCCNc1c2ccccc2nc2ccccc12`, 0.879 µM; in that of `COc1cc(-c2noc(C)c2C#Cc2ccsc2)cc(OC)c1OC`, 0.537 µM.
Still for that read-out and setting: in the case of `Cc1cccc(N2CCN(C(=O)c3ccc4[nH]c(C)c(C)c4c3)CC2)c1C` it was 1.85 µM.
On the same count and under the same terms, the result for `C=CCN=c1scc(C)n1/N=C/c1ccc(O)c(O)c1` reads above 50 µM; that for `CC1(C(=O)NCc2ccccc2)Cc2c(-c3ccc(C(N)=O)cc3)ccnc2O1` (stereo not given), 5.22 µM.
As for `CCOC1=C2[C@@H](CN(S(=O)(=O)c3ccc(C)cc3)[C@H]2c2ccc(Cl)cc2)[C@H]2C(=O)N(c3ccccc3)C(=O)[C@H]2C1`, under setting [2], the concentration at half-maximal activity (AC50) was above 50 µM.
On to `COc1ccccc1NC(=S)N(Cc1ccco1)Cc1cc2cc(C)cc(C)c2[nH]c1=O`, for which, under setting [2], the AC50 was determined as 7 µM.
Same read-out and setting: the result for `Cc1ccc2cc(CN(CC3CCCO3)C(=S)Nc3ccccc3)c(=O)[nH]c2c1C` (stereo not given) reads 3.16 µM.
Take `COc1cccc(S(=O)(=O)N2C[C@@H]3N[C@H](C2)C3c2ccc(-c3cccc(C)c3)cc2)c1` (stereo not given in full): the AC50 under setting [1] is 16 µM.
`O=C(N/N=C/c1c(O)ccc2ccccc12)C(=O)N1CCCC1` registered an AC50 under setting [2] of 12.6 µM.
Same read-out and setting: in the case of `COc1cc([C@@H]2c3cc4c(cc3[C@@H](OC)[C@H]3COC(=O)[C@H]23)OCO4)cc(OC)c1O` it was 2.52 µM.
In the case of `COc1ccc(N2CCc3c(C)nc4c(OC)cc(OC)cc4c32)cc1`, under setting [2], the AC50 is above 50 µM.
Still for that read-out and setting: the result for `O=c1[nH]c(CN2CCN(c3ccc(O)cc3)CC2)nc2scc(-c3ccc(Cl)cc3)c12` reads 6.45 µM; that for `C/C(=N\Nc1ncnc2sc(C)c(C)c12)c1ccccn1`, 0.589 µM; that for `CCCC(=O)NC1=C(Cl)C(=O)c2ccccc2C1=O`, 11.8 µM.
Same read-out and setting: in the case of `Cc1ccc(S(=O)(=O)N2CCOCC2)cc1NC(=O)CSc1n[nH]c(N)n1` it was above 50 µM.
On the same count and under the same terms, in the case of `COC(=O)C1CC23C=CCN4CCC5(c6ccccc6NC15C2C)C43` (stereo not given) it was 4.17 µM; in that of `CC1(C)OC(c2ccccc2)=C/C(=C/C=C2C(=O)NC(=S)NC2=O)O1`, 16.9 µM.
With `Nc1sc(-c2ccccc2)cc1-c1n[nH]c(=S)n1C1CCCCC1`, the AC50 under setting [2] came out at 2.45 µM.
Still for that read-out and setting: in the case of `Cn1cc(C(=O)N/N=C/c2ccc3c(c2)OCO3)c2ccccc21` it was 9.88 µM.
Under setting [2], `COc1c(O[C@@H]2O[C@H](CO)[C@@H](O)[C@H](O)[C@H]2O)cc2c(c1OC)-c1ccc(SC)c(=O)cc1C(NC(C)=O)CC2` (stereo not given in full) displayed an AC50 above 50 µM.
Still for that read-out and setting: in the case of `C[n+]1c2cc(N)ccc2cc2ccc(N)cc21` it was 3.52 µM and 2.96 µM.
